Each molecule was assayed on endogenous SSPN protein with an N-term fusion protein (C2C12 cells) (assay: C2C12 HiBiT assay (SSPN-HiBiT myotubes, primary screen)). Settings: treated day 2, harvested day 4 of differentiation, concentration not given.
Assay type: cell-based, murine
Method: FIG. 1. Activity of DDL-463, DDL-465 (A) and DDL-472 (B) in HiBiT assay. Comparison of activity of the new compounds with parent compound (OT-9m) and vehicle-treated cells. SSPN-HiBiT myotubes were treated on day 2 and harvested on day 4 of differentiation. R.U.=relative units normalized to protein concentration and vehicle control (DMSO). n=18. **p<0.01, ****p<0.0001, ns-difference is non-significant from the vehicle-treated cells.
(§1) Comparison of activity of the new compounds of quinolone series (DDL-494, DDL-495, DDL-496) with parent compound (DDL-449 (aka OT-9m)) and vehicle-treated cells. SSPN-HiBiT myotubes were treated on day 2 and harvested on day 4 of differentiation. R.U.=relative units normalized to protein concentration and vehicle control (DMSO). n=18 for every compound concentration. *p<0.05; **p<0.01, ***p<0.001; ****p<0.0001
as §1, with “compound” for “compounds”, “coumarin” for “quinolone”, “(DDL-491)” for “(DDL-494, DDL-495, DDL-496)”, “(DDL-472)” for “(DDL-449 (aka OT-9m))”, “*p<0.05;” for “*p<0.05; **p<0.01, ***p<0.001;”
To assess activity of the new molecules, a C2C12 HiBiT assay was used as a primary screen. This assay is based on murine C2C12 cell line expressing endogenous SSPN protein with an N-term fusion protein described previously in WO 2022/055926.
Details on development of HiBiT assay for rapid testing of new analogues in vitro (FIG. 2A, B) are provided in PCT Pub. No. WO 2022/055926.

| SSPN-HiBiT fold change over vehicle [fold] | Compound |
| --- | --- |
| ~1 | COc1ccc2[nH]c(=O)c(C(=O)NC3=NNC(C(=O)N4CCCOCC4)N3)cc2c1 (stereo not drawn) [DDL-458] |
| ~1 | COc1ccc2[nH]c(=O)c(C(=O)Nc3c[nH]c(C(=O)N4CCCOCC4)n3)cc2c1 [DDL-459, N-(2-(1,4-oxazepane-4-carbonyl)-1H-imidazol-4-yl)-6-methoxy-2-oxo-1,2-dihydroquinoline-3-carboxamide] |
| 1.1 | COc1ccc2cc(C(=O)Nc3ccc(C(=O)N4CCCOCC4)cc3)c(=O)[nH]c2c1 [DDL-460] |
| 1.1 | COc1cc2cc(C(=O)Nc3ccc(C(=O)N4CCCOCC4)cc3)c(=O)[nH]c2cc1OC [DDL-461] |
| ~1 | O=C(Nc1ccc(C(=O)N2CCCOCC2)cc1)c1cc2ccccc2[nH]c1=O [DDL-462] |
| 1.4 | O=C(Nc1ccc(C(=O)N2CCCOCC2)cc1)c1cc2cc(F)ccc2[nH]c1=O [DDL-463] |
| ~1 | O=C(Nc1ccc(C(=O)N2CCCOCC2)cc1)c1cc2ccc(F)cc2[nH]c1=O [DDL-464] |
| ~1 | CC(=O)Nc1ccc2[nH]c(=O)c(C(=O)Nc3ccc(C(=O)N4CCCOCC4)cc3)cc2c1 [DDL-476] |
| ~0.9 | CC(C)Oc1ccc2cc(C(=O)Nc3ccc(C(=O)N4CCCOCC4)cc3)c(=O)oc2c1 [DDL-481] |
| ~1 | O=C(Nc1ccc(C(=O)N2CCCOCC2)cc1)c1cc2ccc(N3CCOCC3)cc2oc1=O [DDL-482] |
| 1.1 | CN(C)c1ccc2cc(C(=O)Nc3ccc(C(=O)N4CCCOCC4)cc3)c(=O)oc2c1 [DDL-484] |
| 1.2 | C#CCN(CC)c1ccc2cc(C(=O)Nc3ccc(C(=O)N4CCCOCC4)cc3)c(=O)oc2c1 [DDL-489] |
| 1.4 | CC(C)N(c1ccc2cc(C(=O)Nc3ccc(C(=O)N4CCCOCC4)cc3)c(=O)oc2c1)C(C)C [DDL-491] |
| 1.3 | O=C(Nc1ccc(C(=O)N2CCCOCC2)cc1)c1cc2cc(Br)ccc2[nH]c1=O [DDL-496] |
| 1.4 | CC(C)Oc1ccc2[nH]c(=O)c(C(=O)Nc3ccc(C(=O)N4CCCOCC4)cc3)cc2c1 [DDL-762] |

Same assay, conditions: treated day 2, harvested day 4 of differentiation, vs vehicle

| Compound | activity in HiBiT assay |
| --- | --- |
| O=C(Nc1ccc(C(=O)N2CCCOCC2)cc1)c1cc2cc(F)ccc2[nH]c1=O [DDL-463] | exhibit activity |
| CC(C)N(c1ccc2cc(C(=O)Nc3ccc(C(=O)N4CCCOCC4)cc3)c(=O)oc2c1)C(C)C [DDL-491] | active |
| O=C(Nc1ccc(C(=O)N2CCCOCC2)cc1)c1cc2cc(Br)ccc2[nH]c1=O [DDL-496] | active |
